Where “and” joins values, the source holds several entries; their conditions need not be identical. Equal entries are not always repeated. Where two headings read alike, the source gives them in different places.
Legend:
[1] = system: Calu-6 Human Lung Carcinoma cells; assay: Calu 6 Kras mutant xenografts that failed C225 (Erbitux) therapy; conditions: 40 mg/kg q2dx5 after C-225 challenge, Calu-6 xenograft mice
[2] = system: SW480 Human colorectal carcinoma cells; assay: SW480 human colorectal xenografts, Erbitux failed tumors; conditions: 40 mg/kg q2dx7 after C-225 challenge; SW480 xenograft mice; Day 22
[3] = system: Calu-6 Human Lung Carcinoma cells; conditions: Calu-6 xenograft mice; for % T/C / % TGI: day 20; for Observed cures: day 57
[4] = system: MiaPaCA-2 pancreatic cells; assay: Kras mutant pancreatic cancer xenograft model (MiaPaCa-2); assay type: in vivo, human; conditions: MiaPaCa-2 xenograft mice
[5] = system: SW480 Human colorectal carcinoma cells; assay: Kras mutant xenograft model of human colorectal cancer (SW480), single agent therapy; conditions: SW480 xenograft mice, Day 22

For CCc1c2c(nc3ccc(OC(=O)N4CCC(N5CCCCC5)CC4)cc13)-c1cc3c(c(=O)n1C2)COC(=O)[C@]3(O)CC [CPT-11, Irinotecan], the “% TGI” value ([1]; day 20) was 84%, the Observed cures ([1]; day 57) was 0/8 and the “% TGI” value [2] was 65.38%. For the same compound, the “Percent Change in TV” value [2] was 219.31%, the “% T/C” value ([3]; 40 mg/kg q2dx5) was 5% and the “% TGI” value ([3]; 40 mg/kg q2dx5) was 95%. The Observed cures ([3]; 40 mg/kg q2dx5) was 0/8, the “day by which animals relapsed” value ([3]; 40 mg/kg q2d×5) was 40 to 45 days and the “% T/C” value ([3]; 80 mg/kg qdx1) was 48%. For the same compound, the “% TGI” value ([3]; 80 mg/kg qdx1) was 52%, the Observed cures ([3]; 80 mg/kg qdx1) was 0/8 and the “day by which all animals had to be sacrificed due to excessive tumor burden” value ([3]; 80 mg/kg qd×1) was 22 to 24 days. For the same compound, the TGI ([4]; CPT-11 at corresponding dose level as compound 9 (10 mg/kg, q2d×5)) was 20%, the TGI ([4]; multiple-dose at MTD of CPT-11 (40 mg/kg q2d×5)) was 47% and the “effect on tumor growth” value ([4]; single dose at the MTD (80 mg/kg qd×1)) was “no effect on tumor growth”. For the same compound, the “% TGI” value ([5]; 40 mg/kg q2dx5) was 65% and 64.76%, the “Percent Change in TV” value ([5]; 40 mg/kg q2dx5) was 163.62% and the “% T/C” value ([5]; 80 mg/kg qdx1) was 66.60%. The “% TGI” value ([5]; 80 mg/kg qdx1) was 47% and 46.53% and the “Percent Change in TV” value ([5]; 80 mg/kg qdx1) was 397.75%.

Source: US20100056555A1, “METHOD OF TREATING RAS ASSOCIATED CANCER” (ENZON PHARMACEUTICALS, INC., priority 2008, published 2010)
